This note sets out measurements from patent US20230014907A1, “INHIBITORS OF APOL1 AND METHODS OF USING SAME” (Vertex Pharmaceuticals Incorporated, priority 2020, published 2023).

The test concerns the target T1, G1 APOL1 (Homo sapiens, UniProt O14791, I384M/S342G).
T1 construct: expressed in transfected cells
T1 sequence (O14791 28-398 S342G/I384M): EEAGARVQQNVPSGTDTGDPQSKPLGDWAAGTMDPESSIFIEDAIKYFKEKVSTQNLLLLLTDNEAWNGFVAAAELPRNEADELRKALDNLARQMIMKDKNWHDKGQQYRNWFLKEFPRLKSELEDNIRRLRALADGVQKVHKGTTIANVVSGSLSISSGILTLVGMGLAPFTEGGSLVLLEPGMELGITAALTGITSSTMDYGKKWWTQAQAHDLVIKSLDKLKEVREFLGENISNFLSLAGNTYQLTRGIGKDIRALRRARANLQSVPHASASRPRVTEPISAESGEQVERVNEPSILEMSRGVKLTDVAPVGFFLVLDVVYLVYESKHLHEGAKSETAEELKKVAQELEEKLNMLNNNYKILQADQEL
Kind of test: Acute APOL1 Thallium Assay with Inducible Stable Clones of HEK 293 Cells. The note with it: HEK 293 inducible stable clones, G1 APOL1; read-out: Thallium Assay (IC50). It counts as cell-based. An excerpt:
Acute APOL1 Thallium Assay with Inducible Stable Clones of HEK 293 Cells
Apolipoprotein L1 (APOL1) proteins form potassium-permeable cation pores in the plasma membrane. APOL1 risk variants (G1 and G2) induce greater potassium flux than G0 in HEK293 cells. This assay exploits the permeability of thallium (Tl+) through ligand-gated potassium channels. The dye produces a bright fluorescent signal upon binding to Tl+ conducted through potassium channels. The intensity of the Tl+ signal is proportional to the number of potassium channels in the open state. Therefore, it provides a functional indication of the potassium channel activities. During the initial dye-loading step, the Tl+ indicator dye as an acetoxymethyl (AM) ester enters the cells through passive diffusion. Cytoplasm esterases cleave the AM ester and relieve its active thallium-sensitive form. The cells are then stimulated with Tl+. The increase of fluorescence in the assay represents the influx of Tl+ into the cell specifically through the potassium channel (i.e. through APOL1 pores), providing a functional measurement of potassium channel/pore activity. The Thallium assay is conducted with cells expressing G1 APOL1.
APOL1 Cell Line (HEK T-Rex Stable Inducible Cell Line) • HEK T-Rex System • Tetracycline (Tet) inducible mammalian expression system. • Stably express the Tet repressor to regulate transcription. • Expression under the full-length CMV promoter. • APOL1 stable inducible cell line Clone used: G1 DC3.25
Tissue Culture Media • Cell Culture Medium • DMEM+10% FBS+P/S+5 μg/mL blasticidin+1 μg/mL puromycin. • 500 mL DMEM+55 mL FBS+5 mL P/S+280 μL blasticidin S HCl (10 mg/mL)+56 μL puromycin (10 mg/mL). • Cell Assay Medium • DMEM with 2% FBS+penicillin/streptomycin.
Instruments and Equipment • Nuaire cell culture hood, Cat. No. 540-600 • 37° C./5% CO2 incubator link to robotic arm, Liconic: STX110 • Molecular Devices FLIPR^Tetra High throughput cellular screening system, Cat. No. FT0324, Molecular Devices • ThermoFisher MultiDrop 384, Cat. No. 5840300 • Biotek Microfill, Cat. No. ASF1000A-4145 • BioRad TC10 cell counter, Cat. No. 145-0010
Cells Scaled Up from Frozen Vials • APOL1 G1 3.25 (HEK293 T-Rex) frozen vials: 5 million cells per vial • Step 1, Day 1: Defrost frozen vial into T-225. • Step 2, Day 5: (when 85% confluent): Split one T-225 at 3×10^6 cells per flask. • Step 3, Day 8: Splits cells to set up for the assay plates as described below.
T-Rex APOL1 HEK cells are split twice per week to keep the confluence state below 85% of the culture flask surface area. Cells can be kept until passage 25. • Cell Culture Medium • DMEM high glucose+10% FBS, +P/S, +5 μg/mL blasticidin, +1 μg/mL puromycin. • 500 mL DMEM, +55 mL FBS, +5 mL P/S, +280 μL blasticidin 10 mg/mL, +56 μL Puromycin 10 mg/mL. • Assay Media • Opti-MEM reduced serum medium from Invitrogen.
Preparation of Cell Assay Plates • Culture medium is removed from the x cm^2 T-flask by aspiration. • The cell monolayer is rinsed with PBS 1× at room temperature. PBS is removed by aspiration. • Cells are trypsinized using Trypsin. • The flasks are incubated at room temperature for 2-3 minutes. • Complete DMEM medium is then added. Cell suspension is then transferred to a 50 mL Falcon polypropylene tube. • Cells are then counted using a BioRad TC10 cell counter and the required amount of cells are centrifuged at 1200 RPM for 5 minutes. Required amount is 1.3×10^6 cells/mL APOL1 T-Rex HEK cells. • The pellet is suspended in the assay medium. • Using the MultiDrop, add 20 μL to each well (corresponds to 26000 cells total per well) of a 384-well black, transparent, flat bottom Poly-D coated plate. • Tetracycline as prepared in the following section is added to the cells before plating to induce APOL1 expression. • Plates are left at room temperature for 20 to 30 minutes before incubation at 37° C. and 5% CO2. […]
As to `Cc1ccc(CNC(=O)OCCc2c(-c3ccc(F)cc3)[nH]c3c(F)cc(F)cc23)o1` [Compound 485], the IC50 is greater than 1 µM.
For `Cc1occc1CNC(=O)NCCc1c(-c2ccc(F)cc2)[nH]c2c(F)cc(F)cc12` [Compound 295] the value was greater than 1 µM; for `O=C1NC[C@@H](O)[C@@H]1NCCc1c(-c2ccc(F)cc2)[nH]c2c(F)cc(F)cc12` [Compound 427, (3S,4R)-3-((2-(5,7-difluoro-2-(4-fluorophenyl)-1H-indol-3-yl)ethyl)amino)-4-hydroxypyrrolidin-2-one], greater than 1 µM; for `O=C(CCc1c(-c2ccc(F)cc2)[nH]c2c(F)cc(Cl)cc12)N[C@H](CO)C(F)(F)F` [Compound 205], greater than 1 µM.
For `O=C(NCCc1c(-c2ccc(F)cc2)[nH]c2c(F)cc(F)cc12)NCC1CCOCC1` [Compound 291] the value was greater than 1 µM; for `O=C(NCCc1c(-c2ccc(F)cc2)[nH]c2c(F)cc(F)cc12)C1CNC1=O` (stereo not shown) [Compound 350], greater than 1 µM; for `O=C(CCc1c(-c2ccc(F)cc2)[nH]c2c(F)cc(Cl)cc12)NC1(CO)CCC1` [Compound 194, 3-[5-chloro-7-fluoro-2-(4-fluorophenyl)-1H-indol-3-yl]-N-[1-(hydroxymethyl)cyclobutyl]propanamide], 0.25 to 1 µM.
The figure for `O=S(=O)(CCO)NCCc1c(-c2ccc(F)cc2)[nH]c2c(F)cc(F)cc12` [Compound 422] is greater than 1 µM.
Regarding `Cc1cc(F)c2[nH]c(-c3ccc(F)cc3)c(CCC(=O)N[C@H](CO)C(N)=O)c2c1` [Compound 220], the IC50 is greater than 1 µM.
As for `C[C@H](N)C(=O)NCCc1c(-c2ccc(F)cc2)[nH]c2c(F)cc(F)cc12` [Compound 363], the IC50 was greater than 1 µM.
Take `CC(C)(C)OC(=O)N[C@H](CO)C(=O)NCCc1c(-c2ccc(F)cc2)[nH]c2c(F)cc(F)cc12` [Compound 305, tert-butyl N-[(1R)-2-[2-[5,7-difluoro-2-(4-fluorophenyl)-1H-indol-3-yl]ethylamino]-1-(hydroxymethyl)-2-oxo-ethyl]carbamate]: the IC50 was greater than 1 µM.
For `O=C(NC1CC(O)C1)OCCc1c(-c2ccc(F)cc2)[nH]c2c(F)cc(F)cc12` (stereo not shown) [Compound 466] the value was 0.25 to 1 µM.
Consider `O=C(NCc1cnco1)OCCc1c(-c2ccc(F)cc2)[nH]c2c(F)cc(F)cc12` [Compound 477], for which the IC50 was greater than 1 µM.
Regarding `C[C@H](CO)NC(=O)OCCc1c(-c2ccc(F)cc2)[nH]c2c(F)cc(F)cc12` [Compound 445], the IC50 is less than 0.25 µM.
For `CC(CO)C(=O)NCCc1c(-c2ccc(F)cc2)[nH]c2c(F)cc(F)cc12` (racemic) [Compound 357] the value was less than 0.25 µM.
For `O=C(NCCc1c(-c2ccc(F)cc2)[nH]c2c(F)cc(F)cc12)c1cnc(C(F)(F)F)s1` [Compound 367] the value was greater than 1 µM; for `CN(C[C@H](O)CO)C(=O)CCc1c(-c2ccc(F)cc2)[nH]c2c(F)cc(Cl)cc12` [Compound 211], greater than 1 µM; for `N#CC(NC(=O)CCc1c(-c2ccc(F)cc2)[nH]c2c(F)cc(F)cc12)C(N)=O` (stereo not shown) [Compound 127], 0.25 to 1 µM.
For the molecule `O=C1CC(C(=O)NCCc2c(-c3ccc(F)cc3)[nH]c3c(F)cc(F)cc23)CN1` (stereo not shown) [Compound 340], the IC50 is greater than 1 µM.
The figure for `O=C(CCc1c(-c2ccc(F)cc2)[nH]c2c(F)cc(Cl)cc12)NC(CO)CF` (stereo not shown) [Compound 196] is 0.25 to 1 µM.
For `NC(=O)CC(=O)NCCc1c(-c2ccc(F)cc2)[nH]c2c(F)cc(F)cc12` [Compound 358] the value was greater than 1 µM; for `O=C(NCCc1c(-c2ccc(F)cc2)[nH]c2c(F)cc(F)cc12)c1cnccn1` [Compound 398], greater than 1 µM.
Take `C[C@H](O)[C@H](CO)NC(=O)OCCc1c(-c2ccc(F)cc2)[nH]c2c(F)cc(F)cc12` [Compound 442]: the 50% inhibitory concentration (IC50) was less than 0.25 µM.
The figure for `NC(=O)[C@H](CO)NC(=O)OCCc1c(-c2ccc(F)cc2)[nH]c2c(F)cc(F)cc12` [Compound 475] is greater than 1 µM; for `O=C(NCCc1c(-c2ccc(F)cc2)[nH]c2c(F)cc(F)cc12)[C@@H]1CCOC1` [Compound 409] it is greater than 1 µM.
Turning to `CC(CO)CNC(=O)NCCc1c(-c2ccc(F)cc2)[nH]c2c(F)cc(F)cc12` (racemic) [Compound 280], the half-inhibitory concentration (IC50) was greater than 1 µM.
With `O=S(=O)(NCCc1c(-c2ccc(F)cc2)[nH]c2c(F)cc(F)cc12)C1CCOCC1` [Compound 423], the IC50 is greater than 1 µM.
Take `C[C@H](O)C(=O)NCCc1c(-c2ccc(F)cc2)[nH]c2c(F)cc(F)cc12` [Compound 362]: the half-inhibitory concentration (IC50) lay within 0.25 to 1 µM.
For `N#CC(NC(=O)OCCc1c(-c2ccc(F)cc2)[nH]c2c(F)cc(F)cc12)C(N)=O` (stereo not shown) [Compound 456] the value was 0.25 to 1 µM; for `CC(CCO)NC(=O)CCc1c(-c2ccc(F)cc2)[nH]c2c(F)cc(Cl)cc12` (racemic) [Compound 200], 0.25 to 1 µM; for `O=C(NCCc1c(-c2ccc(F)cc2)[nH]c2c(F)cc(F)cc12)c1c[nH]nc1C(F)(F)F` [Compound 316], greater than 1 µM.
The figure for `OC1(CC#Cc2c(-c3ccc(F)cc3)[nH]c3c(F)cc(F)cc23)CCC1` [Compound 525, 1-[3-[5,7-difluoro-2-(4-fluorophenyl)-1H-indol-3-yl]prop-2-ynyl]cyclobutanol] is greater than 1 µM; for `Cc1cc(F)c2[nH]c(-c3ccc(F)cc3)c(CCC(=O)NCCO)c2c1` [Compound 218] it is greater than 1 µM; for `O=C(NCCc1c(-c2ccc(F)cc2)[nH]c2c(F)cc(F)cc12)c1ccc(O)nc1` [Compound 334] it is greater than 1 µM.
For `N#CC(CO)NC(=O)CCc1c(-c2ccc(F)cc2)[nH]c2c(F)cc(Cl)cc12` (stereo not shown) [Compound 198] the value was 0.25 to 1 µM.
With `O=C(NCCc1c(-c2ccc(F)cc2)[nH]c2c(F)cc(F)cc12)C1CC1` [Compound 415], the IC50 lay in the range of 0.25 to 1 µM.
The figure for `O=C(NCCc1c(-c2ccc(F)cc2)[nH]c2c(F)cc(F)cc12)NCC1CCCOC1` (stereo not shown) [Compound 293] is greater than 1 µM.
For `CN(CCO)C(=O)NCCc1c(-c2ccc(F)cc2)[nH]c2c(F)cc(F)cc12` [Compound 302] the value was greater than 1 µM; for `CC(C)[C@@H](CO)NC(=O)NCCc1c(-c2ccc(F)cc2)[nH]c2c(F)cc(F)cc12` [Compound 269], greater than 1 µM; for `O=C(NCCc1c(-c2ccc(F)cc2)[nH]c2c(F)cc(F)cc12)c1cscn1` [Compound 385], greater than 1 µM.
Turning to `O=C(NCCc1c(-c2ccc(F)cc2)[nH]c2c(F)cc(F)cc12)C1CC(O)C1` (stereo not shown) [Compound 348], the IC50 is greater than 1 µM.
Consider `O=C1CC(C(=O)NCCc2c(-c3ccc(F)cc3)[nH]c3c(F)cc(F)cc23)CO1` (stereo not shown) [Compound 383], for which the IC50 was greater than 1 µM.
In the case of `O=C1CC[C@@H](C(=O)NCCc2c(-c3ccc(F)cc3)[nH]c3c(F)cc(F)cc23)N1` [Compound 338], the IC50 is greater than 1 µM.

Broadly, the IC50 is the concentration needed to halve the response being measured.
